Test results: US20090209578A1, “CHEMICAL COMPOUNDS” (PFIZER INC, priority 2005, published 2009)

Each compound was assayed against HIV-1 fusion (gp160 induced cell-cell fusion; HeLa P4 cell line expressing CCR5 and CD4 / CHO-Tat10 cell line) (Homo sapiens, UniProt P51681) (assay: gp160 induced cell-cell fusion assay). Conditions: HeLa P4 / CHO-Tat10 cells, read-out: IC50.
Format: cell-based
Description: Biol., 60, 147-52 (1996); and/or by using the intracellular calcium mobilisation assays as described by the same authors, and/or inhibiting cell fusion following procedures disclosed in Bradley et al., J Biomol Screen 9, 516-24 (2004).
The gp160 induced cell-cell fusion assay uses a HeLa P4 cell line and a CHO-Tat10 cell line.
The HeLa P4 cell line expresses CCR5 and CD4 and has been transfected with HIV-1 LTR-β-Galactosidase. The media for this cell line is Dulbecco modified eagle's medium (D-MEM) (without L-glutamine) containing 10% foetal calf serum (FCS), 2 mM L-glutamine, penicillin/streptomycin (Pen/Strep; 100 U/mL penicillin+[…] streptomycin), and 1 μg/ml puromycin.
The CHO cell line is a Tat (transcriptional trans activator)-expressing clone from a CHO JRR17.1 cell line that has been transfected with pTat puro plasmid. The media for this cell line is rich medium for mammalian cell culture originally developed at Roswell Park Memorial Institute RPMI1640 (without L-glutamine) containing 10% FCS, 2 mM L-glutamine, 0.5 mg/ml Hygromycin B and 12 µg/ml puromycin. The CHO JRR17.1 line expresses gp160 (JRFL) and is a clone that has been selected for its ability to fuse with a CCR5/CD4 expressing cell line.
Upon cell fusion, Tat present in the CHO cell is able to transactivate the HIV-1 long terminal repeat (LTR) present in the HeLa cell leading to the expression of the β-Galactosidase enzyme. This expression is then measured using a Fluor Ace™ β-Galactosidase reporter assay kit (Bio-Rad cat no. 170-3150). This kit is a quantitative fluorescent assay that determines the level of expression of β-galactosidase using 4-methylumbelliferyl-galactopyranoside (MUG) as substrate. β-Galactosidase hydrolyses the fluorogenic substrate resulting in release of the fluorescent molecule 4-methylumbelliferone (4MU). Fluorescence of 4-methylumbelliferone is then measured on a fluorometer using an excitation wavelength of 360 nm and emission wavelength of 460 nm.
Compounds that inhibit fusion will give rise to a reduced signal and, following solubilisation in an appropriate solvent and dilution in culture medium, a dose-response curve for each compound can be used to calculate IC50 values.

Sequence of HIV-1 fusion (gp160 induced cell-cell fusion; HeLa P4 cell line expressing CCR5 and CD4 / CHO-Tat10 cell line) (P51681 whole entry, the tested form may be a part): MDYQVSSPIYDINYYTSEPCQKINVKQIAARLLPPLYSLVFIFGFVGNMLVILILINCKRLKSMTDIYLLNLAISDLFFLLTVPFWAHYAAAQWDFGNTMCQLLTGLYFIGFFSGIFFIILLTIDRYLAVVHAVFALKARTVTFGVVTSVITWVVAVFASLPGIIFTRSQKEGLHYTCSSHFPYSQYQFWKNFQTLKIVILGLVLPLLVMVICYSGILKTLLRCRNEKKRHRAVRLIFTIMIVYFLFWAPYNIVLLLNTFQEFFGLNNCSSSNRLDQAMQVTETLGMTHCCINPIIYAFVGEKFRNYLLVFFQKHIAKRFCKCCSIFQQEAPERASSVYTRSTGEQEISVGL

SMILES	IC50 [nM]
CC(C[C@H](NC(=O)C1CCC(F)(F)CC1)c1ccccc1)N1CCC(c2nnnn2C(C)C)CC1 (single isomer, unassigned) [Example 125]	2.2
CC(C[C@H](NC(=O)C1CCC(F)(F)CC1)c1ccccc1)N1CCC(c2nnnn2C(C)C)CC1 (single isomer, unassigned) [Example 126]	21.8
COC(=O)N1CCc2nc(C)n(C3CCN(C(C)C[C@H](NC(=O)C4CCC4(F)F)c4ccccc4)CC3)c2C1 (some centres unmarked) [Example 5]	0.7
Cc1nc2c(n1C1CCN(C(C)C[C@H](NC(=O)C3(C)CC3)c3ccccc3)CC1)CN(C(=O)C(C)C)CC2 (some centres unmarked) [Example 22]	0.5
Cc1nc2c(n1C1CCN(C(C)C[C@H](NC(=O)C3CC(F)(F)C3)c3ccccc3)CC1)CN(C(=O)C(C)C)CC2 (stereo partly drawn) [Example 25, 3,3-Difluoro-N-{(1S)-3-[4-(5-isobutyryl-2-methyl-4,5,6,7-tetrahydro-3H-imidazo[4,5-c]pyridin-3-yl)piperidin-1-yl]-1-phenylbutyl}cyclobutanecarboxamide]	0.4
Cc1nc2c(n1C1CCN(C(C)C[C@H](NC(=O)C3CCC3(F)F)c3ccccc3)CC1)CN(C(=O)C(C)C)CC2 (some centres unmarked) [Example 26]	38.5
Cc1nc2c(n1C1CCN(C(C)C[C@H](NC(=O)C3(C)CC3)c3ccccc3)CC1)CN(C(=O)C(C)C)CC2 (some centres unmarked) [Example 27]	115
CC(=O)N1CCc2nc(C)n(C3CCN(C(C)C[C@H](NC(=O)C4(C)CC4)c4cccc(F)c4)CC3)c2C1 (some centres unmarked) [Example 48]	0.8
CC(=O)N1CCc2nc(C)n(C3CCN(C(C)C[C@H](NC(=O)C4CCC4(F)F)c4cccc(F)c4)CC3)c2C1 (some centres unmarked) [Example 49]	0.4
CC(=O)N1CCc2nc(C)n(C3CCN(C(C)C[C@H](NC(=O)C4CCOCC4)c4cccc(F)c4)CC3)c2C1 (some centres unmarked) [Example 52]	1
CC(=O)N1CCc2nc(C)n(C3CCN(C(C)C[C@H](NC(=O)C4CCC4(F)F)c4ccccc4)CC3)c2C1 (some centres unmarked) [Example 53]	0.5
CC(=O)N1CCc2nc(C)n(C3CCN(C(C)C[C@H](NC(=O)C4CCC(F)(F)CC4)c4ccccc4)CC3)c2C1 (some centres unmarked) [Example 54]	0.4
CC(=O)N1CCc2nc(C)n(C3CCN(C(C)C[C@H](NC(=O)C4(C)CC4)c4ccccc4)CC3)c2C1 (some centres unmarked) [Example 55]	0.3
CC(=O)N1CCc2nc(C)n(C3CCN(C(C)C[C@H](NC(=O)C4CCC4)c4cccc(F)c4)CC3)c2C1 (some centres unmarked) [Example 57]	0.2
COC(=O)N[C@@H](CC(C)N1CCC(n2c(C)nc3c2CN(C(C)=O)CC3)CC1)c1cccc(F)c1 (some centres unmarked) [Example 59]	13
CC(=O)N1CCc2nc(C)n(C3CCN(C(C)C[C@H](NC(=O)C4CC4)c4cccc(F)c4)CC3)c2C1 (some centres unmarked) [Example 60]	0.6
CC(=O)N1CCc2nc(C)n(C3CCN(C(C)C[C@H](NC(=O)OC(C)C)c4cccc(F)c4)CC3)c2C1 (some centres unmarked) [Example 61]	1.6
CC(=O)N1CCc2nc(C)n(C3CCN(C(C)C[C@H](NC(=O)OC(C)C)c4ccccc4)CC3)c2C1 (some centres unmarked) [Example 63]	1.8
CC(=O)N[C@@H](CC(C)N1CCC(n2c(C)nc3c2CN(C(=O)C(C)C)CC3)CC1)c1cccc(F)c1 (some centres unmarked) [Example 64]	2
CCC(=O)N[C@@H](CC(C)N1CCC(n2c(C)nc3c2CN(C(=O)C(C)C)CC3)CC1)c1cccc(F)c1 (some centres unmarked) [Example 65]	0.6
CCOC(=O)N1CCc2nc(C)n(C3CCN(C(C)C[C@H](NC(C)=O)c4cccc(F)c4)CC3)c2C1 (stereo partly drawn) [Example 66, Ethyl 3-{1-[(3S)-3-(acetylamino)-3-(3-fluorophenyl)-1-methylpropyl]piperidin-4-yl}-2-methyl-3,4,6,7-tetrahydro-5H-imidazo[4,5-c]pyridine-5-carboxylate]	3.5
CCC(=O)N[C@@H](CC(C)N1CCC(n2c(C)nc3c2CN(C(=O)OC)CC3)CC1)c1cccc(F)c1 (some centres unmarked) [Example 67]	0.2
CCCC(=O)N[C@@H](CC(C)N1CCC(n2c(C)nc3c2CN(C(=O)OC)CC3)CC1)c1cccc(F)c1 (stereo partly drawn) [Example 69, Methyl 3-{1-[(3S)-3-(butyrylamino)-3-(3-fluorophenyl)-1-methylpropyl]piperidin-4-yl}-2-methyl-3,4,6,7-tetrahydro-5H-imidazo[4,5-c]pyridine-5-carboxylate]	0.2
COC(=O)N1CCc2c(nc(C)n2C2CCN(C(C)C[C@H](NC(=O)C3CC(F)(F)C3)c3cccc(F)c3)CC2)C1 (stereo partly drawn) [Example 80, Methyl 1-{1-[(3S)-3-{[(3,3-difluorocyclobutyl)carbonyl]amino}-3-(3-fluorophenyl)-1-methylpropyl]piperidin-4-yl}-2-methyl-1,4,6,7-tetrahydro-5H-imidazo[4,5-c]pyridine-5-carboxylate]	0.2
CCC(=O)N[C@@H](CC(C)N1CCC(n2c(C)nc3c2CCN(C(=O)OC)C3)CC1)c1cccc(F)c1 (some centres unmarked) [Example 91]	102
CC(=O)N1CCc2c(nc(C)n2C2CCN(C(C)C[C@H](NC(=O)C3CC3)c3cccc(F)c3)CC2)C1 (some centres unmarked) [Example 103]	0.2
CC(C)c1noc(C2CCN(C(C)C[C@H](NC(=O)C3CCC3)c3ccccc3)CC2)n1 (stereo partly drawn) [Example 105, N-{(1S)-3-[4-(3-isoPropyl-1,2,4-oxadiazol-5-yl)piperidin-1-yl]-1-phenylbutyl}cyclobutanecarboxamide]	94.6
CC(C)c1nccn1C1CCN(C(C)C[C@H](NC(=O)C2CCC(F)(F)CC2)c2ccccc2)CC1 (stereo partly drawn) [Example 111, 4,4-Difluoro-N-{(1S)-3-[4-(2-isopropyl-1H-imidazol-1-yl)piperidin-1-yl]-1-phenylbutyl}cyclohexanecarboxamide]	0.2
Cc1nccn1C1CCN(C(C)C[C@H](NC(=O)C2CCC(F)(F)CC2)c2ccccc2)CC1 (stereo partly drawn) [Example 112, 4,4-Difluoro-N-{(1S)-3-[4-(2-methyl-1H-imidazol-1-yl)piperidin-1-yl]-1-phenylbutyl}cyclohexanecarboxamide]	1

Same assay, conditions: IC50 (nM), HeLa P4 / CHO-Tat10 cells

SMILES	IC50 [nM]
CCCC(=O)N[C@@H](CC(C)N1CCC(n2c(C)nc3c2CN(C(C)=O)CC3)CC1)c1ccccc1 (stereo partly drawn) [Example 56, N-{(1S)-3-[4-(5-acetyl-2-methyl-4,5,6,7-tetrahydro-3H-imidazo[4,5-c]pyridin-3-yl)piperidin-1-yl]-1-phenylbutyl}butanamide]	1.2
CC(=O)N1CCc2nc(C)n(C3CCN(C(C)C[C@H](NC(=O)C(C)C)c4cccc(F)c4)CC3)c2C1 (stereo partly drawn) [Example 58, N-[(1S)-3-[4-(5-acetyl-2-methyl-4,5,6,7-tetrahydro-3H-imidazo[4,5-c]pyridin-3-yl)piperidin-1-yl]-1-(3-fluorophenyl)butyl]-2-methylpropanamide]	0.5
CCC(=O)N[C@@H](CC(C)N1CCC(n2c(C)nc3c2CN(C(C)=O)CC3)CC1)c1cccc(F)c1 (stereo partly drawn) [Example 62, N-[(1S)-3-[4-(5-acetyl-2-methyl-4,5,6,7-tetrahydro-3H-imidazo[4,5-c]pyridin-3-yl)piperidin-1-yl]-1-(3-fluorophenyl)butyl]propanamide]	1
CCC(=O)N[C@@H](CC(C)N1CCC(n2c(C)nc3c2CCN(C(=O)OC)C3)CC1)c1ccccc1 (stereo partly drawn) [Example 92, methyl 2-methyl-1-{1-[(3S)-1-methyl-3-phenyl-3-(propionylamino)propyl]piperidin-4-yl}-1,4,6,7-tetrahydro-5H-imidazo[4,5-c]pyridine-5-carboxylate]	0.4
CC(=O)N1CCc2c(nc(C)n2C2CCN(C(C)C[C@H](NC(=O)C(C)C)c3cccc(F)c3)CC2)C1 (stereo partly drawn) [Example 94, N-[(1S)-3-[4-(5-acetyl-2-methyl-4,5,6,7-tetrahydro-1H-imidazo[4,5-c]pyridin-1-yl)piperidin-1-yl]-1-(3-fluorophenyl)butyl]-2-methylpropanamide]	0.2
CCC(=O)N[C@@H](CC(C)N1CCC(n2c(C)nc3c2CCN(C(C)=O)C3)CC1)c1cccc(F)c1 (stereo partly drawn) [Example 104, N-[(1S)-3-[4-(5-acetyl-2-methyl-4,5,6,7-tetrahydro-1H-imidazo[4,5-c]pyridin-1-yl)piperidin-1-yl]-1-(3-fluorophenyl)butyl]propanamide]	0.8
